{"source": "patent US7569695B2", "about": "“Dyes for the detection or quantification of desirable target molecules” (Enzo Life Sciences, Inc., priority 2005, dated 2009)", "key": {"[1]": {"test_system": "78 bp amplicon from the anti-sense C construct", "experiment": "Amplification of nucleic acids in the presence of dye using a standard PCR machine (Example 34)", "assay_type": "biochemical", "conditions": "for amplicon synthesis (gel analysis, FIG. 2): 20 cycles", "protocol": "The experiment shown in Example 33 was repeated using a standard PCR machine for synthesis to see if the effects observed in Example 33 was dependent upon the rapid heating and cooling steps used in the Light Cycler.\nA master mixture was made up of: • 500 µl of 2× PCR mix described in example 33 • 20 µl of 25 mM MgCl2 • 175 µl of DEPC treated H2O • 10 ul of 1 u/l ung (Epicentre) • 10 µl of 10 mg/ml BSA (New England Biolabs, Beverly, Mass.) • 10 l Taq polymease (Perkin Elmer)+10 µl of TaqStart (Clontech) PCR conditions were 2.5 µl of target template+2.0 l of dye was added to 15.5 µl of Master mixture incubated at 45° C. for 10 minutes and then amplified using cycles of: • a) 94° C. for 30 seconds • b) 65° C. for 30 seconds • c) 72° C. for 1 minute\nA duplicate set of samples was amplified with one set being taken out after 20 cycles of amplification and the second set undergoing 40 cycles. […] The other effect previously observed was also seen, i.e. non-target amplicon synthesis seen in the no Dye reaction (lane 1) was reduced with the 1:200 dilution of SYBR Green and the 1:10 dilution of Dye 109 again repeating the results of Example 33."}, "[2]": {"test_system": "78 bp amplicon of the anti-sense C construct", "experiment": "Amplification on the Light Cycler in the presence of Dye 122 and 109a, 19 cycles (Example 35)", "assay_type": "biochemical", "description": "A target template was amplified on the Light Cycler (Roche) in the presence of various amounts of SYBR Green and Dye 122 from Example 32. In addition, a byproduct from the silica gel chromatography of Dye 109 in step (g) of Example 14 was also used. This compound is believed to have a single protonation of one of the amines of Dye 109 and as such will be termed Dye 109a. The stock of Dye 122 was OD=200 measured at 488 nm and the stock of Dye 109a was OD=200 measured at 498 nm. The template was a 1:50,000 dilution of the 78 bp amplicon of the anti-sense C construct described previously. • A master-mixture was made up of: • 350 µl of 2×PCR mix described in Example 33 • 14 l of 25 mM MgCl2 • 175.0 l of DEPC treated H2O • 7 l of 10 mg/ml BSA (New England Biolabs, Beverly, Mass.) • 7 l Taq polymease (Perkin Elmer)+7 l of TaqStart (Clontech)\n2.0 l of target template+2.0 l of various dye dilutions were added to 16 µl of Master mixture, and then amplified as described previously in Example 33 except that the incubation at 45° C. for 10 minutes was eliminated since ung was not used for this series of amplifications. The amplification was stopped after 19 cycles. The results of this series of amplifications are seen in FIG. 3. […] For Dye 109a, similar features were seen where 1:10 was inhibitory (lane 18) and 1:30 was optimal (lanes 19 and 20)."}}, "data": [{"smiles": "CCCN(CCCN(C)C)c1cc(/C=C2/Sc3ccccc3N2C)c2ccccc2[n+]1-c1ccccc1", "note": "[SYBR Green, reference compound]", "values": [{"measurement": "amplicon synthesis (gel analysis, FIG. 2)", "setting": "[1]; 1:200 dilution of SYBR Green, lanes 5 and 6", "result": "a single discrete band"}, {"measurement": "amplicon synthesis (gel analysis, FIG. 2)", "setting": "[1]; all other SYBR Green dilutions", "result": "no synthesis was evident"}, {"measurement": "non-target amplicon synthesis compared to the no Dye reaction", "setting": "[1]; 40 cycles, 1:200 dilution of SYBR Green", "result": "reduced"}, {"measurement": "amplification (gel analysis, FIG. 3)", "setting": "[2]; 1:800 dilution of SYBR Green, lanes 4 and 5", "result": "best amplification"}, {"measurement": "amplification (gel analysis, FIG. 3)", "setting": "[2]; SYBR Green dilutions on either side of 1:800", "result": "sharp drop off"}]}]}
